According to US10028992B2, “Methods of treating muscular dystrophy” (BOARD OF REGENTS OF THE NEVADA SYSTEM OF HIGHER EDUCATION …, priority 2012, dated 2018):
Where two headings read alike, the source gives them in different places.

System: α7 integrin promoter
Experiment: muscle cell-based assay: α7βgal+/− myoblasts/myotubes, LacZ reporter, β-galactosidase cleavage of FDG
Parameters: species or system mouse
In short: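 Fluorescein generated from FDG by β-galactosidase reports α7 integrin promoter activity in differentiated myoblasts from α7+/− LacZ knock-in pups. Screening hits then went to dose-response, western blotting and a myostatin counterscreen.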

## COc1ccccc1C(=O)OCc1ccc2sc(C)nc2c1 [drawing 378]
Myotubes, compound at 0.5 uM
  Results in a α7+/− β-galactosidase assay, Myotubes, 0.5 uM: −0.04468
Myotubes, compound at 1 uM
  Results in a α7+/− β-galactosidase assay, Myotubes, 1 uM: 0.06534
Myotubes, compound at 5 uM
  Results in a α7+/− β-galactosidase assay, Myotubes, 5 uM: 0.05342
Myotubes, compound at 10 uM
  Results in a α7+/− β-galactosidase assay, Myotubes, 10 uM: −0.1134
Myotubes, compound at 20 uM
  Results in a α7+/− β-galactosidase assay, Myotubes, 20 uM: −0.02544
Myotubes, compound at 40 uM
  Results in a α7+/− β-galactosidase assay, Myotubes, 40 uM: −0.1114

## NC(=O)COc1ccc(C(=O)/C=C2\C(=O)Nc3ccccc32)cc1 [drawing 379]
Myotubes, compound at 0.5 uM
  Results in a α7+/− β-galactosidase assay, Myotubes, 0.5 uM: 0.04116
Myotubes, compound at 1 uM
  Results in a α7+/− β-galactosidase assay, Myotubes, 1 uM: 0.06227
Myotubes, compound at 5 uM
  Results in a α7+/− β-galactosidase assay, Myotubes, 5 uM: 0.08579
Myotubes, compound at 10 uM
  Results in a α7+/− β-galactosidase assay, Myotubes, 10 uM: −0.1303
Myotubes, compound at 20 uM
  Results in a α7+/− β-galactosidase assay, Myotubes, 20 uM: −0.2553
Myotubes, compound at 40 uM
  Results in a α7+/− β-galactosidase assay, Myotubes, 40 uM: −0.6822

## CC1(C)Cc2ccccc2-c2nc3n(c(=O)c21)CCS3 [drawing 380]
Myotubes, compound at 0.5 uM
  Results in a α7+/− β-galactosidase assay, Myotubes, 0.5 uM: 0.09354
Myotubes, compound at 1 uM
  Results in a α7+/− β-galactosidase assay, Myotubes, 1 uM: 0.08602
Myotubes, compound at 5 uM
  Results in a α7+/− β-galactosidase assay, Myotubes, 5 uM: −0.04079
Myotubes, compound at 10 uM
  Results in a α7+/− β-galactosidase assay, Myotubes, 10 uM: −0.05719
Myotubes, compound at 20 uM
  Results in a α7+/− β-galactosidase assay, Myotubes, 20 uM: −0.329
Myotubes, compound at 40 uM
  Results in a α7+/− β-galactosidase assay, Myotubes, 40 uM: −0.421

## CN(/C(=N/S(=O)(=O)c1cccs1)c1ccccc1)c1ccccc1 [drawing 381]
Myotubes, compound at 0.5 uM
  Results in a α7+/− β-galactosidase assay, Myotubes, 0.5 uM: −0.07971
Myotubes, compound at 1 uM
  Results in a α7+/− β-galactosidase assay, Myotubes, 1 uM: 0.1809
Myotubes, compound at 5 uM
  Results in a α7+/− β-galactosidase assay, Myotubes, 5 uM: 0.01531
Myotubes, compound at 10 uM
  Results in a α7+/− β-galactosidase assay, Myotubes, 10 uM: −0.02849
Myotubes, compound at 20 uM
  Results in a α7+/− β-galactosidase assay, Myotubes, 20 uM: 0.1022
Myotubes, compound at 40 uM
  Results in a α7+/− β-galactosidase assay, Myotubes, 40 uM: −0.209

## CSc1ccc(S(=O)(=O)NCc2ccccc2)cc1 [drawing 382]
Myotubes, compound at 0.5 uM
  Results in a α7+/− β-galactosidase assay, Myotubes, 0.5 uM: −0.1565
Myotubes, compound at 1 uM
  Results in a α7+/− β-galactosidase assay, Myotubes, 1 uM: −0.2515
Myotubes, compound at 5 uM
  Results in a α7+/− β-galactosidase assay, Myotubes, 5 uM: 0.02007
Myotubes, compound at 10 uM
  Results in a α7+/− β-galactosidase assay, Myotubes, 10 uM: 0.1738
Myotubes, compound at 20 uM
  Results in a α7+/− β-galactosidase assay, Myotubes, 20 uM: −0.1735
Myotubes, compound at 40 uM
  Results in a α7+/− β-galactosidase assay, Myotubes, 40 uM: −0.07044

## O=C1Nc2ccccc2/C1=C/c1ccccc1F [drawing 383]
Myotubes, compound at 0.5 uM
  Results in a α7+/− β-galactosidase assay, Myotubes, 0.5 uM: −0.06236
Myotubes, compound at 1 uM
  Results in a α7+/− β-galactosidase assay, Myotubes, 1 uM: −0.04077
Myotubes, compound at 5 uM
  Results in a α7+/− β-galactosidase assay, Myotubes, 5 uM: −0.1089
Myotubes, compound at 10 uM
  Results in a α7+/− β-galactosidase assay, Myotubes, 10 uM: 0.02646
Myotubes, compound at 20 uM
  Results in a α7+/− β-galactosidase assay, Myotubes, 20 uM: −0.3381
Myotubes, compound at 40 uM
  Results in a α7+/− β-galactosidase assay, Myotubes, 40 uM: −0.4226

## CN1C(=O)/C(=C(/C#N)c2nc3ccccc3[nH]2)c2ccccc21 [drawing 384]
Myotubes, compound at 0.5 uM
  Results in a α7+/− β-galactosidase assay, Myotubes, 0.5 uM: −0.07617
Myotubes, compound at 1 uM
  Results in a α7+/− β-galactosidase assay, Myotubes, 1 uM: −0.02413
Myotubes, compound at 5 uM
  Results in a α7+/− β-galactosidase assay, Myotubes, 5 uM: −0.1571
Myotubes, compound at 10 uM
  Results in a α7+/− β-galactosidase assay, Myotubes, 10 uM: 0.1257
Myotubes, compound at 20 uM
  Results in a α7+/− β-galactosidase assay, Myotubes, 20 uM: −0.2111
Myotubes, compound at 40 uM
  Results in a α7+/− β-galactosidase assay, Myotubes, 40 uM: −0.2699

## CC1CC(C)(C)N=C(S)N1CC(=O)N(C)Cc1ccccc1 (stereo not drawn) [drawing 385]
Myotubes, compound at 0.5 uM
  Results in a α7+/− β-galactosidase assay, Myotubes, 0.5 uM: 0.02464
Myotubes, compound at 1 uM
  Results in a α7+/− β-galactosidase assay, Myotubes, 1 uM: −0.02121
Myotubes, compound at 5 uM
  Results in a α7+/− β-galactosidase assay, Myotubes, 5 uM: −0.03109
Myotubes, compound at 10 uM
  Results in a α7+/− β-galactosidase assay, Myotubes, 10 uM: 0.2144
Myotubes, compound at 20 uM
  Results in a α7+/− β-galactosidase assay, Myotubes, 20 uM: −0.02703
Myotubes, compound at 40 uM
  Results in a α7+/− β-galactosidase assay, Myotubes, 40 uM: 0.0594

## Cc1noc(C)c1COc1ccc(C(=O)NCCc2ccccn2)cc1 [drawing 386]
Myotubes, compound at 0.5 uM
  Results in a α7+/− β-galactosidase assay, Myotubes, 0.5 uM: 0.08027
Myotubes, compound at 1 uM
  Results in a α7+/− β-galactosidase assay, Myotubes, 1 uM: 0.1153
Myotubes, compound at 5 uM
  Results in a α7+/− β-galactosidase assay, Myotubes, 5 uM: −0.04323
Myotubes, compound at 10 uM
  Results in a α7+/− β-galactosidase assay, Myotubes, 10 uM: 0.2279
Myotubes, compound at 20 uM
  Results in a α7+/− β-galactosidase assay, Myotubes, 20 uM: −0.2443
Myotubes, compound at 40 uM
  Results in a α7+/− β-galactosidase assay, Myotubes, 40 uM: −0.1582

## COCCSc1ccccc1C(=O)Nc1cc(C)cc(C)c1 [drawing 387]
Myotubes, compound at 0.5 uM
  Results in a α7+/− β-galactosidase assay, Myotubes, 0.5 uM: −0.1267
Myotubes, compound at 1 uM
  Results in a α7+/− β-galactosidase assay, Myotubes, 1 uM: 0.09331
Myotubes, compound at 5 uM
  Results in a α7+/− β-galactosidase assay, Myotubes, 5 uM: −0.1086
Myotubes, compound at 10 uM
  Results in a α7+/− β-galactosidase assay, Myotubes, 10 uM: 0.1203
Myotubes, compound at 20 uM
  Results in a α7+/− β-galactosidase assay, Myotubes, 20 uM: −0.2283
Myotubes, compound at 40 uM
  Results in a α7+/− β-galactosidase assay, Myotubes, 40 uM: −0.2601

## CC(=O)Nc1ccc(NC(=O)c2cc(=O)c3cc(C)cc(C)c3o2)cc1 [drawing 388]
Myotubes, compound at 0.5 uM
  Results in a α7+/− β-galactosidase assay, Myotubes, 0.5 uM: −0.05012
Myotubes, compound at 1 uM
  Results in a α7+/− β-galactosidase assay, Myotubes, 1 uM: −0.03106
Myotubes, compound at 5 uM
  Results in a α7+/− β-galactosidase assay, Myotubes, 5 uM: −0.1165
Myotubes, compound at 10 uM
  Results in a α7+/− β-galactosidase assay, Myotubes, 10 uM: 0.3265
Myotubes, compound at 20 uM
  Results in a α7+/− β-galactosidase assay, Myotubes, 20 uM: −0.3385
Myotubes, compound at 40 uM
  Results in a α7+/− β-galactosidase assay, Myotubes, 40 uM: −0.2657

## COc1ccc(-c2c[nH]nc2-c2ccc(OC)cc2)cc1 [drawing 389]
  Results in a α7+/− β-galactosidase assay, Myotubes, 0.5 uM: −0.01143
  Results in a α7+/− β-galactosidase assay, Myotubes, 1 uM: 0.1883
  Results in a α7+/− β-galactosidase assay, Myotubes, 5 uM: 0.3888
  Results in a α7+/− β-galactosidase assay, Myotubes, 10 uM: 0.8585
  Results in a α7+/− β-galactosidase assay, Myotubes, 20 uM: 0.03803
  Results in a α7+/− β-galactosidase assay, Myotubes, 40 uM: −0.2518
